Measured values taken from US20230234917A1, “ASPARAGINE DERIVATIVES AND METHODS OF USING SAME” (priority 2020, published 2023).

Columns and labels:
[1] = biological target: T1, ClbP (Escherichia coli, UniProt Q0P7K6); test: ClbP whole cell activity (inhibition) assay, fluorogenic substrate; assay type: cell-based, E. coli
Protocol: Whole Cell Activity Assay
(§1) 1) E. coli ClbP+ were taken from a frozen stock and streaked onto BHI plates. They were grown aerobically at 37° C. overnight in the incubator.
(§2) 1) A single colony was selected from the plate and inoculated into 30 mL LB in a 50 mL conical vial eight times (240 mL total). The bacteria were grown aerobically overnight (16-20 h) at 37° C. on a nutator with rocking.
1) The saturated overnight culture was centrifuged to create a firm pellet (3,200 g, 10 min, 4° C.). In a biosafety cabinet, the supernatant was removed and then the pellet was resuspended in 30 mL sterile PBS.
2) The bacteria were centrifuged again (3,200 g, 10 min, 4° C.). The supernatant was removed, and the pellet was resuspended in sterile PBS buffer (6 mL) in each of the 8 tubes. This fivefold concentrated bacterial solution was the working solution.
3) The bacterial working solution (192 μL) was mixed with inhibitor (6 μL, final concentration was 300, 100, 33.3, 11.1, 3.7, 1.2, 0.4, or 0 μM). Fluorogenic substrate (2 μL, final concentration 5 μM) was immediately added across the plate to initiate the reaction. As a control, each plate contained Compound No. III in this dose response curve. The bacterial concentration was fivefold concentrated compared to the original saturated overnight culture. Carryover from DMSO was 4% (v/v). All compounds were tested in singlicate.
(§3) 4) The plate was loaded into a spectrophotometer preheated to 37° C. The fluorescence was recorded every 2 min for 46 min. The excitation wavelength was 360 nm (20 nm bandwidth), the emission wavelength was 460 nm (20 nm bandwidth), the optics position was bottom, the gain was 65, the light source was a tungsten bulb, and the read speed was normal.
(§4) 5) The linear portion of the fluorescence increase was 10-30 min. The rate of fluorescence increase (A.U./min) for each well in an inhibitor series was normalized to the 0 μM inhibitor condition. The normalized activity as a function of inhibitor concentration was then fit to a three parameter IC50 curve in Graphpad Prism.
(§5) “A” indicates an IC50 value less than 100 μM, “B” indicates an IC50 between 100 and 300 μM, “C” indicates an IC50 above 300 μM.

[2] = biological target: T1, ClbP; test: ClbP cell lysate activity (inhibition) assay, fluorogenic substrate; assay type: biochemical; conditions: ClbP Lysate Inhibition Assay: IC50, E. coli ClbP+ lysozyme-EDTA lysates, 5 μM fluorogenic substrate, inhibitor 0-300 μM, 37° C., singlicate
Protocol: Cell Lysate Activity Assay
as §1, §2
1) The saturated overnight culture was centrifuged to create a firm pellet (3,200 g, 10 min, 4° C.). The supernatant was removed and then the pellet was resuspended in 30 mL sterile PBS.
2) The bacteria were centrifuged again (3,200 g, 10 min, 4° C.). The supernatant was removed, and the pellet was resuspended in sterile PBS buffer (3 mL) in each 8 tubes to make a tenfold concentrated bacterial solution.
3) A lysozyme-EDTA (LE) solution was made in ddH2O (0.05 mg/mL lysozyme, 0.25 M EDTA).
4) For each of the eight tubes, LE solution (3 mL) was mixed with concentrated bacterial solution (3 mL). This mixture was incubated at 37° C. for 30 min to generate the lysates.
5) The lysates (192 μL) were mixed with inhibitor (6 μL, final concentration was 300, 100, 33.3, 11.1, 3.7, 1.2, 0.4, or 0 μM). Fluorogenic substrate (2 μL, final concentration 5 μM) was immediately added across the plate to initiate the reaction. As a control, each plate contained Compound No. III in this dose response curve. The final concentration of bacterial lysates was fivefold concentrated compared to the original saturated overnight culture. Carryover from DMSO was 4% (v/v). All compounds were tested in singlicate.
as §3, with “6)” for “4)”
as §4, with “7)” for “5)”, “0-20” for “10-30”
as §5

[3] = biological target: Full-length WT ClbP (Escherichia coli, UniProt Q0P7K6); test: ClbP molecular (purified protein) enzymatic inhibition assay, fluorogenic substrate; assay type: biochemical, E. coli
Protocol: ClbP Molecular (Purified Protein) Assay
1) Full-length WT ClbP was thawed on ice. A diluted enzyme solution (2 nM) was made by mixing 3.57 μL of enzyme with 20 mL of reaction buffer (50 mM Tris pH 8.0, 200 mM NaCl, 0.02% (w/v) n-dodecyl-b-D-maltoside (DDM)).
2) In a 96 well plate, the diluted protein solution (73.5 μL) was mixed with inhibitor (1.5 μL, of varying concentrations, see below) and preincubated for 15 min at room temperature. Then, reaction buffer (75 μL) containing 10 μM fluorogenic substrate was added to initiate the reaction. After addition of substrate, the final concentrations were 1 nM full-length WT ClbP, 5 μM fluorogenic substrate in 50 mM Tris pH 8.0, 200 mM NaCl, 0.02% (w/v) DDM, with either 0, 0.14, 0.41, 1.2, 3.7, 11, 33, or 100 μM inhibitor. For all conditions, the DMSO carryover was 2% (v/v) at the preincubation stage and 1% in the reaction stage. Compound No. III was always present as a control in each plate, and all compounds were tested in singlicate. In previous assays, the Km of the fluorogenic substrate was determined to be approximately 5 μM.
3) Immediately after addition of substrate to enzyme, the plate was transferred into a spectrophotometer held at room temperature. The fluorescence was recorded every 1.5 min for 15 min. The excitation wavelength was 360 nm (20 nm bandwidth), the emission wavelength was 440 nm (20 nm bandwidth), the optics position was bottom, the gain was extended, the light source was a xenon flash lamp, and the read speed was normal.
as §4, with “4)” for “5)”, “is at least from 0-6 min, so this time regime is used.” for “was 10-30 min.”
as §5

SMILES	IC50 [1] [µM]	IC50 [2] [µM]	IC50 [3] [µM]
NC(=O)C[C@@H](NC(=O)CCC1CCCC1)C(=O)NCCc1ccccc1 [Compound CCL]	< 100	< 100	< 100
NC(=O)C[C@@H](NC(=O)/C=C/CC1CCCC1)C(=O)NCCc1ccc(O)cc1 [Compound CCLX]	< 100	< 100	< 100
CCCCCCCC(=O)N[C@H](CC(N)=O)C(=O)N[C@H](C)Cc1ccccc1 [Compound CCIII]	< 100	< 100	< 100
CCCCCCCC(=O)N[C@H](CC(N)=O)C(=O)NCCc1cccc(O)c1 [Compound CCXXIII]	< 100	< 100	< 100
CCCCCCCC(=O)N[C@H](CC(N)=O)C(=O)NCCc1nnn[nH]1 [Compound CCXXXIII]	< 100	< 100	< 100
NC(=O)C[C@@H](NC(=O)CCCC1CCCCCC1)C(=O)NCCc1ccccc1 [Compound CCXXXIX]	< 100	< 100	< 100
NC(=O)C[C@@H](NC(=O)CCC1CCCCC1)C(=O)NCCc1ccc(O)cc1 [Compound CCXLII]	< 100	< 100	< 100
NC(=O)C[C@@H](NC(=O)CCCc1ccncc1)C(=O)NCCc1ccc(O)cc1 [Compound CCLI]	< 100	100 to 300	< 100
CCCCCCCC(=O)N[C@H](CC(N)=O)C(=O)NCCC1CCN(C)CC1 [Compound CCXIX]	< 100	100 to 300	< 100
NC(=O)C[C@@H](NC(=O)/C=C/CC1CCCCCC1)C(=O)NCCc1ccc(O)cc1 [Compound CCXL]	< 100	< 100	< 100
CCCCCCCCCC(=O)N[C@H](CC(N)=O)C(=O)NCCc1ccc(O)cc1 [Compound CCXXI]	< 100	< 100	< 100
CCCCCCCCCCCC(=O)N[C@H](CC(N)=O)C(=O)NCCc1ccccn1 [Compound CCCX]	> 300	< 100	< 100
CCCCCCCC(=O)N[C@H](CN[C@@H](C)C(=O)OC)CC(N)=O [Compound CCLXXXI]	> 300	> 300	100 to 300
CCCC(=O)N[C@H](CC(N)=O)C(=O)NCCc1ccccc1 [Compound CCLXVIII]	< 100	> 300	100 to 300
CCCCCCCC(=O)N[C@H](CC(N)=O)C(=O)NCCc1cncs1 [Compound CCXXXII]	< 100	< 100	< 100
CCCCCCCC(=O)N[C@H](CC(N)=O)C(=O)NCCc1ccccn1 [Compound CCV]	< 100	< 100	< 100
CCCCCCCC(=O)N[C@](C)(CC(N)=O)C(=O)NCCc1ccccc1 [Compound LXX]	> 300	> 300	100 to 300
CN(CCCCCC(=O)N[C@H](CC(N)=O)C(=O)NCCc1ccc(O)cc1)Cc1ccccc1 [Compound CCXCI]	< 100	< 100	< 100

SMILES	IC50 [1] [µM]	IC50 [2] [µM]	IC50 [3] [µM]
CCCCCCCC(=O)N[C@H](CC(N)=O)C(=O)NCCc1ccc(C(=O)OC)cc1 [Compound CXCVII]	< 100	< 100	< 100
CCCCCCCC(=O)N[C@H](CC(N)=O)[C@H](O)CCCc1ccccc1 [Compound CXCII]	> 300	< 100	100 to 300
CCCCCCCC(=O)N[C@H](CC(N)=O)C(=O)NC[C@@H](C)c1ccccc1 [Compound CCCII]	< 100	< 100	< 100
CCCCCCCC(=O)N[C@H](CC(N)=O)C(=O)NC[C@H](C)c1ccccc1 [Compound CCCI]	< 100	< 100	< 100
CCCCCCCC(=O)N[C@H](CC(N)=O)C(=O)NCCC1CCNCC1 [Compound CCXVIII]	< 100	< 100	100 to 300
CCCCCCCNC(=O)[C@H](CC(N)=O)NC(=O)OCc1ccccc1 [Compound CCIX]	> 300	> 300	100 to 300
CCCCCCCC(=O)N[C@H](CC(N)=O)[C@@H](O)CCCc1ccccc1 [Compound CXCI]	< 100	100 to 300	100 to 300
NC(=O)C[C@@H](NC(=O)CCCC1CCCCC1)C(=O)NCCc1ccc(O)cc1 [Compound CCXXII]	< 100	< 100	< 100
CCCCCCCC(=O)N[C@H](CC(N)=O)c1nc2ccccc2[nH]1 [Compound CCVII]	> 300	> 300	< 100
CCCCCCCC(=O)N[C@H](CC(N)=O)C(=O)NCCn1cnnc1 [Compound CCXXXIV]	< 100	> 300	100 to 300
CCCCCCCC(=O)N[C@H](CC(N)=O)C(=O)NCCc1ccc(OC)c(OC)c1 [Compound CCXLIX]	< 100	< 100	< 100
CCCCCCCC(=O)N[C@@H](CN[C@@H](C)C(=O)OC)CC(N)=O [Compound CCLXXX]	> 300	> 300	100 to 300
CCCCCCCC(=O)N[C@H](CC(N)=O)C(=O)NCCc1ccc(OC)cc1 [Compound CXCIX]	< 100	< 100	< 100
NC(=O)C[C@@H](NC(=O)CCCC1CCCC1)C(=O)NCCc1ccc(O)cc1 [Compound CCLXI]	< 100	< 100	< 100
CCCCCCCNC(=O)[C@H](CC(N)=O)NC(=O)OCC [Compound XCIX]	> 300	> 300	–
CCCCCC(=O)N[C@H](CC(N)=O)C(=O)NCCc1ccc(C(F)(F)F)cc1 [Compound CCLIX]	–	100 to 300	100 to 300
CCCCCCCC(=O)N[C@H](CC(N)=O)C(=O)NCCc1ccc(O)cc1 [Compound CC]	–	–	< 100
